US20220387621A1, “TARGETED DELIVERY OF NANOCARRIER-CONJUGATED DOXORUBICIN” (priority 2019, published 2022)

Experiments:
BJAB and Farage cells = assay: 48-hour viability with TFRC overexpression, holo-TF competition or dynasore; format: cell-based, human; conditions: 15 μM, 50 μM
Method: (§1) For 24-48 hr assessments, cells were seeded at 5000 cells per well in a 96-well plate under serial drug dilutions. For delayed drug effect viability, cells were seeded at 500,000 cells per well in a 6-well plate on day 0 and treated with drug for 24 hrs, after which cells were washed ×2 and plated in normal cell media without drug. Viability was assessed using Cell Titer Glo (Promega #G7573) according to manufacturer's protocol. Luminescence was measured using BioTek Synergy HT plate reader. EC50s were calculated using nonlinear fit regression analysis in GraphPad Prism 8. Apoptosis assessment was conducted with BD Biosciences reagent (#559763) using Attune NxT flow cytometer.
Human TFRC cDNA (HsCD00044911) was purchased from the DNASU Plasmid Repository (Tempe, Ariz., USA) and was subsequently cloned into pLVX-IRES-ZsGreenl vector (Clontech Laboratories, Mountain View, Calif., USA). Recombinant plasmids, together with packaging/envelope plasmids psPAX2 and pMD2.G (Addgene, Cambridge, Mass., USA), were co-transfected into HEK293 cells using Lipofectamine 3000 (Invitrogen, Carlsbad, Calif., USA) following manufacturer's instructions. Cell media was changed at 24 hours after transfection, and viral particles collected at 48 hours and 72 hours post transfection.
For viral transduction, BJAB and Farage cells were infected with harvested virus by spinoculation. […]

[1] = tested on: BJAB, Farage, SU-DHL4, and Riva cells; assay: Delayed drug effect viability: 24 h drug, washout, viability tracking over 6 days; format: cell-based, human
Method: as §1

DLBCL PDX tumor = conditions: mouse, in vivo
Method: (§2) All animal studies were performed under the approval of the University of Miami Institutional Animal Care and Use committee. […] For tumor-bearing experiments, DLBCL PDX DFBL-75549 tumor model was obtained and engrafted mice through surgical dorsal tumor implantation. Tumor volume (TV) was measured by ultrasound (Vevo 3100, Visualsonics) with a predetermined survival endpoint of TV>1500 mm3. A continuous body weight loss of >20% was also a predetermined survival endpoint. For dose-finding experiments, mice were dosed intravenously on day 0, day 14, and day 24 and observed for changes in body weight. For R-nanoCHOP vs. R-CHOP tumor-bearing experiments, mice were dosed with all drugs intravenously once on day 1 of every 21 days, with exception to Prednisone administered orally. The following drug doses were used: Rituximab 20 mg/kg, Cyclophosphamide 40 mg/kg, Doxorubicin 3.3 mg/kg, CDT 33 mg/kg, Vincristine 0.5 mg/kg, Prednisone 0.2 mg/kg.

in vivo = conditions: mouse
Method: as §2
Formalin-fixed paraffin-embedded tissue sections, produced per standard protocols, were used to make H&E-stained and immunohistochemistry (IHC) pathology slides. Antibodies were used as per above, when applicable.

[2] = tested on: murine B-lymphoma line A20; assay: 48-hour viability assay of A20 cells; format: cell-based; conditions: Mus musculus
Method: as §1

BJAB cells = assay: Fluorescent confocal microscopy, nuclear colocalization in BJAB; format: cell-based, human; conditions: 24 hours
Method: Cells were seeded at 50,000 cells per well in a 12-well plate and treated with either vehicle or drug. BJAB cells were fixed with 4% paraformaldehyde and permeabilized with 1% NP40 followed by staining for DAPI (Thermofisher Scientific, Waltham, Mass., USA). Cells were then imaged (60×) using a Leica DM4 B microscope. HEK293 cells had the nucleus stained for DAPI (Thermo #R37605) or GFP (Thermo #C10602) per the manufacturer protocol. Cells were live-imaged (63× objective) using Leica Sp5 confocal microscop and images collected and analyzed using ImageJ software.

Compound: O=C(N/N=C/c1ccc(O)c(O)c1)c1cc2ccccc2cc1O [dynasore, Dynasore]
- viability, single agent (BJAB and Farage cells): negatively affected viability

Compound: COc1cccc2c1C(=O)c1c(O)c3c(c(O)c1C2=O)C[C@@](O)(C(=O)CO)C[C@@H]3O[C@H]1C[C@H](N)[C@H](O)[C@H](C)O1 [Dox, doxorubicin]
- cell viability over time-course after washout [1]: seen only with much higher doses
- anti-tumor efficacy (OS and tumor volume) (DLBCL PDX tumor): relatively weak antitumor activity
- body weight after two additional doses (DLBCL PDX tumor): irreversible weight loss
- body weight nadir (DLBCL PDX tumor): 8 days
- return to starting weight (DLBCL PDX tumor): 10 to 14 days
- MTD (in vivo; male, NOD scid gamma (NSG), iv): 3.3 mg/kg
- weight loss at MTD (in vivo): ~20%
- EC50 [2]: 0.0106 µM
- nuclear colocalization (BJAB cells): similar
